# According to PMC11506924, “Triterpenoid Saponins and Flavonoid Glycosides from the Flower of Camellia flavida and Their Cytotoxic and α-Glycosidase Inhibitory Activities” (International Journal of Molecular Sciences, 2024):
# What was measured:
# Hep G2 = test: MTT cytotoxicity assay, Hep G2; format: cell-based; details: Homo sapiens, HepG2, 24 h exposure, ± SD, n = 8
# Text: (§1) The human cervical cancer cell line Hela, the human lung adenocarcinoma cell line A549, the human breast cancer cell lines MCF-7 and MDA-MB-231, the human hepatoma cell lines BEL-7402 and Hep G2, the human embryonic lung fibroblast cell line MRC-5, and the human nasal epithelial cell line HNEpC were all sourced from the China Center for Type Culture Collection (CCTCC, Wuhan University, Hubei, China). Hela, A549, MCF-7, MDA-MB-231, BEL-7402, MRC-5, and Hep G2 cells were maintained in DMEM media, while HNEpC cells were cultured in RPMI 1640. All media were supplemented with 10% FBS (v/v) and 1% penicillin-streptomycin, and cells were grown in a humidified atmosphere containing 5% CO2 at 37 °C.
# (§2) The MTT assay was conducted to assess cell viability, as previously described. Cells were seeded onto 96-well plates at a density of 1 × 10^4 cells per well, with each experiment replicated eight times to ensure reproducibility. […] Subsequently, 10 μL MTT reagent was added to each well, and the plates were incubated for a further 4 h at 37 °C, adhering strictly to the manufacturer’s instructions. The optical density (OD) values were then measured at 570 nm using a microplate reader. The cell survival rate for each compound was calculated employing the following formula: OD value of the experimental group−OD value of the blank group/OD value of the control group−OD value of Blank group×100%
# (§3) Statistical analysis data from the cytotoxicity and α-glycosidase inhibitory assays were analyzed using the mean and standard deviation. The 50% cytotoxic and inhibitory concentrations were calculated and compared to the control via non-linear regression. These analyses were performed using SPSS® Statistics (Version 18.0, IBM Software, Armonk, NY, USA).
# BEL-7402 = test: MTT cytotoxicity assay, BEL-7402; format: cell-based; details: Homo sapiens, 24 h exposure, ± SD, n = 8
# Text: as §1, §2, §3
# [1] = MTT cytotoxicity assay, HNEpC (normal cells); format: cell-based; details: HNEpC cells (normal nasal epithelial cells), normal human nasal epithelial cells, 24 h exposure, n = 8
# Text: as §1
# (§4) The MTT assay was conducted to assess cell viability, as previously described. Cells were seeded onto 96-well plates at a density of 1 × 10^4 cells per well, with each experiment replicated eight times to ensure reproducibility. Following incubation at 37 °C for 24 h, cells were exposed to various concentrations (0.25, 0.5, 1.0, 2.0, 4.0, 8.0, 16.0, 32.0 µM) of compounds 1–10 for 24 h. Subsequently, 10 μL MTT reagent was added to each well, and the plates were incubated for a further 4 h at 37 °C, adhering strictly to the manufacturer’s instructions. The optical density (OD) values were then measured at 570 nm using a microplate reader. The cell survival rate for each compound was calculated employing the following formula: OD value of the experimental group−OD value of the blank group/OD value of the control group−OD value of Blank group×100%
# as §3
# MCF-7 = test: MTT cytotoxicity assay, MCF-7; format: cell-based; details: Homo sapiens, MCF7, 24 h exposure, ± SD, n = 8
# Text: as §1, §4, §3
# Hela = test: MTT cytotoxicity assay, Hela; format: cell-based; details: Homo sapiens, 24 h exposure, ± SD, n = 8
# Text: as §1, §2, §3
# A549 = test: MTT cytotoxicity assay, A549; format: cell-based; details: Homo sapiens, 24 h exposure, ± SD, n = 8
# Text: as §1, §2, §3
# [2] = MTT cytotoxicity assay, MRC-5 (normal cells); format: cell-based; details: MRC-5 cells (normal embryonic lung fibroblasts), normal human embryonic lung fibroblast, 24 h exposure, n = 8
# Text: as §1, §4, §3
# MDA-MB-231 = test: MTT cytotoxicity assay, MDA-MB-231; format: cell-based, human; details: for IC50: Homo sapiens, MDA-MB-231, MTT, 24 h exposure, ± SD, n = 8
# Text: as §1, §2, §3
SMILES,IC50 (Hep G2),IC50 (BEL-7402),IC50 at 24 h [1],IC50 (MCF-7),IC50 (Hela),IC50 (A549),IC50 at 24 h [2],IC50 (MDA-MB-231),inhibitory effect on MDA-MB-231 cells (in words) (MDA-MB-231; compared with positive control)
"COC(=O)C1OC(OC2CCC3(C)C(CCC4(C)C3CC=C3C5CC(C)(C)CCC5(CO)C(O)C(O)C34C)C2(C)C)C(OC2OC(CO)C(O)C(O)C2O)C(OC2OC(CO)C(O)C(O)C2OC2OC(C)C(O)C(O)C2O)C1O [Compound 1, 3β,15α,16α,28-tetrahydroxyolean-12-en-3-O-β-D-glucopyranosyl-(1→2)-[α-L-rhamnopyranosyl-(1→2)-β-D-galactopyranosyl-(1→3)]-β-D-glucuronopyranoside methyl ester]",25.6 ± 3.46 µM,7.62 ± 1.06 µM,> 30 µM,9.06 ± 0.45 µM,15.1 ± 1.06 µM,> 30 µM,> 30 µM,> 30 µM,
"CC1OC(OC2C(OC3C(O)C(C(=O)O)OC(OC4CCC5(C)C(CCC6(C)C5CC=C5C7CC(C)(C)CCC7(CO)C(O)C(O)C56C)C4(C)C)C3OC3OC(CO)C(O)C(O)C3O)OC(CO)C(O)C2O)C(O)C(O)C1O [Compound 2, 3β,15α,16α,28-tetrahydroxyolean-12-en-3-O-β-D-glucopyranosyl-(1→2)-[α-L-rhamnopyranosyl-(1→2)-β-D-galactopyranosyl-(1→3)]-β-D-glucuronopyranoside]",14 ± 3.29 µM,> 30 µM,> 30 µM,19.2 ± 3.71 µM,4.17 ± 0.85 µM,> 30 µM,> 30 µM,26.5 ± 3.07 µM,
"CC1OC(OC2C(OC3C(O)C(C(=O)O)OC(OC4CCC5(C)C(CCC6(C)C5CC=C5C7CC(C)(C)CCC7(CO)C(=O)C(O)C56C)C4(C)C)C3OC3OC(CO)C(O)C(O)C3O)OC(CO)C(O)C2O)C(O)C(O)C1O [Compound 3, 3β,15α,28-trihydroxyolean-12-en-16-on-3-O-β-D-glucopyranosyl-(1→2)-[α-L-rhamnopyranosyl-(1→2)-β-D-galactopyranosyl-(1→3)]-β-D-glucuronopyranoside]",8.77 ± 1.56 µM,4.94 ± 0.41 µM,> 30 µM,1.65 ± 0.39 µM,> 30 µM,23.4 ± 7.26 µM,> 30 µM,10.1 ± 2.28 µM,comparable to that of cisplatin
"CC1OC(OC2C(OC3C(OC4C(=O)c5c(O)cc(O)cc5OC4c4ccc(O)cc4)OC(C)C(O)C3O)OC(CO)C(O)C2O)C(O)C(O)C1O [Compound 4, (2R,3R)-3,5,7,4′-tetrahydroxyflavanone-3-O-α-L-rhamnopyranosyl-(1→2)-β-D-glucopyranosyl-(1→2)-α-L-rhamnoside]",> 30 µM,> 30 µM,> 30 µM,> 30 µM,> 30 µM,> 30 µM,> 30 µM,> 30 µM,
"CC(=O)OC1C(O)C(C)OC(OC2C(OC3C(OC4C(=O)c5c(O)cc(O)cc5OC4c4ccc(O)cc4)OC(C)C(O)C3O)OC(CO)C(O)C2O)C1O [Compound 5, (2R,3S)-3,5,7,4′-tetrahydroxyflavanone-3-O-[3-acetyl-O-α-L-rhamnopyranosyl-(1→2)-β-D-glucopyranosyl-(1→2)]-α-L-rhamnoside]",20.8 ± 3.79 µM,> 30 µM,> 30 µM,> 30 µM,> 30 µM,> 30 µM,> 30 µM,> 30 µM,
"CC(=O)OC1C(C)OC(OC2C(OC3C(OC4C(=O)c5c(O)cc(O)cc5OC4c4ccc(O)cc4)OC(C)C(O)C3O)OC(CO)C(O)C2O)C(O)C1O [Compound 6, (2R,3R)-3,5,7,4′-tetrahydroxyflavanone-3-O-[4-acetyl-O-α-L-rhamnopyranosyl-(1→2)-β-D-glucopyranosyl-(1→2)]-α-L-rhamnoside]",> 30 µM,11.4 ± 3.11 µM,> 30 µM,> 30 µM,> 30 µM,> 30 µM,> 30 µM,> 30 µM,
"C[C@@H]1O[C@@H](OC[C@H]2O[C@@H](Oc3c(-c4ccc(O)c(O)c4)oc4cc(O)cc(O)c4c3=O)[C@H](OC(=O)/C=C/c3ccc(O)cc3)[C@@H](O[C@@H]3OC[C@H](O)[C@H](O)[C@H]3O)[C@@H]2O)[C@H](O)[C@H](O[C@@H]2OC[C@@H](O)[C@H](O)[C@H]2O)[C@H]1O [Compound 7, 3,5,7,3′,4′-pentahydroxyflavonol-3-O-α-L-arabinopyranosyl-(1→3)-[β-D-xylopyranosyl-(1→3)-α-L-rhamnopyranosyl-(1→6)]-2-O-p-E-coumaryl-β-D-glucopyranoside]",> 30 µM,> 30 µM,> 30 µM,> 30 µM,> 30 µM,> 30 µM,> 30 µM,> 30 µM,
"COc1cccc2c1C(=O)c1c(O)c3c(c(O)c1C2=O)C[C@@](O)(C(=O)CO)C[C@@H]3O[C@H]1C[C@H](N)[C@H](O)[C@H](C)O1 [doxorubicin, reference compound]",,,,3.79 ± 0.26 µM,,,,,
